# Like-named read-outs stand apart in the source and are kept apart here.
# How the values were obtained:
# rats = test: positive emotional learning (PEL) test, 50-kHz ultrasonic vocalizations; format: in vivo; conditions: rat, PO, one hour after administration
# Procedure: Experiments were conducted as described in Burgdorf et al., “The effect of selective breeding for differential rates of 50-kHz ultrasonic vocalizations on emotional behavior in rats,” Devel. Psychobiol., 51:34-46 (2009). Rat 50-kHz ultrasonic vocalization (hedonic USVs) is a validated model for the study of positive affective state and is best elicited by rough-and-tumble play.
# The PEL assay measures the acquisition of positive (hedonic) 50-kHz ultrasonic vocalizations (USVs) to a social stimulus, heterospecific rough and tumble play stimulation. Heterospecific rough-and-tumble play stimulation was administered by the experimenter's right hand. One hour after administration of test compound or vehicle negative control (0.5% sodium carboxymethyl cellulose in 0.9% sterile saline vehicle), animals received 3 min of heterospecific rough-and-tumble play that consisted of alternating 15 sec blocks of heterospecific play and 15 sec of no-stimulation. High frequency ultrasonic vocalizations (USVs) were recorded and analyzed by sonogram with Avasoft SASlab Pro (Germany) as previously described by Burgdorf et al., “Positive emotional learning is regulated in the medial prefrontal cortex by GluN2B-containing NMDA receptors,” Neuroscience, 192:515-523 (2011). Frequency modulated 50-kHz USVs that occurred during each of the no-stimulation periods were quantified to measure PEL. Animals were not habituated to play stimulation before testing. Positive emotional learning was measured during the conditioned stimulus (CS) trials preceding the tickle unconditioned stimulus (UCS) trials. Animals received 15 second trials consisting of 6 CS and 6 UCS trials each (3 min total).
# The table below summarizes the findings. As each experiment includes its own vehicle group, an example (typical) vehicle score is shown. Max effect (mean number of 50 kHz USVs per 15 seconds) is reported as ^: <6.0; *: 6.0-7.6; **: 7.7-10; ***:10.1-20
# NMDAR2A = target: T1, NMDAR2A (Homo sapiens, UniProt Q12879); test: [3H]MK-801 binding in NMDAR2A expressing HEK cell membranes; format: biochemical; conditions: 50 μM glutamate; for Emax: read-out: A: % maximal [3H]MK-801 binding relative to 1 mM glycine; for EC50: read-out: B: log EC50 (converted)
# T1 construct: expressed in transfected cells; host or cells: HEK cells (membrane extract)
# T1 sequence (Q12879 23-1464, species assumed, other chains not shown): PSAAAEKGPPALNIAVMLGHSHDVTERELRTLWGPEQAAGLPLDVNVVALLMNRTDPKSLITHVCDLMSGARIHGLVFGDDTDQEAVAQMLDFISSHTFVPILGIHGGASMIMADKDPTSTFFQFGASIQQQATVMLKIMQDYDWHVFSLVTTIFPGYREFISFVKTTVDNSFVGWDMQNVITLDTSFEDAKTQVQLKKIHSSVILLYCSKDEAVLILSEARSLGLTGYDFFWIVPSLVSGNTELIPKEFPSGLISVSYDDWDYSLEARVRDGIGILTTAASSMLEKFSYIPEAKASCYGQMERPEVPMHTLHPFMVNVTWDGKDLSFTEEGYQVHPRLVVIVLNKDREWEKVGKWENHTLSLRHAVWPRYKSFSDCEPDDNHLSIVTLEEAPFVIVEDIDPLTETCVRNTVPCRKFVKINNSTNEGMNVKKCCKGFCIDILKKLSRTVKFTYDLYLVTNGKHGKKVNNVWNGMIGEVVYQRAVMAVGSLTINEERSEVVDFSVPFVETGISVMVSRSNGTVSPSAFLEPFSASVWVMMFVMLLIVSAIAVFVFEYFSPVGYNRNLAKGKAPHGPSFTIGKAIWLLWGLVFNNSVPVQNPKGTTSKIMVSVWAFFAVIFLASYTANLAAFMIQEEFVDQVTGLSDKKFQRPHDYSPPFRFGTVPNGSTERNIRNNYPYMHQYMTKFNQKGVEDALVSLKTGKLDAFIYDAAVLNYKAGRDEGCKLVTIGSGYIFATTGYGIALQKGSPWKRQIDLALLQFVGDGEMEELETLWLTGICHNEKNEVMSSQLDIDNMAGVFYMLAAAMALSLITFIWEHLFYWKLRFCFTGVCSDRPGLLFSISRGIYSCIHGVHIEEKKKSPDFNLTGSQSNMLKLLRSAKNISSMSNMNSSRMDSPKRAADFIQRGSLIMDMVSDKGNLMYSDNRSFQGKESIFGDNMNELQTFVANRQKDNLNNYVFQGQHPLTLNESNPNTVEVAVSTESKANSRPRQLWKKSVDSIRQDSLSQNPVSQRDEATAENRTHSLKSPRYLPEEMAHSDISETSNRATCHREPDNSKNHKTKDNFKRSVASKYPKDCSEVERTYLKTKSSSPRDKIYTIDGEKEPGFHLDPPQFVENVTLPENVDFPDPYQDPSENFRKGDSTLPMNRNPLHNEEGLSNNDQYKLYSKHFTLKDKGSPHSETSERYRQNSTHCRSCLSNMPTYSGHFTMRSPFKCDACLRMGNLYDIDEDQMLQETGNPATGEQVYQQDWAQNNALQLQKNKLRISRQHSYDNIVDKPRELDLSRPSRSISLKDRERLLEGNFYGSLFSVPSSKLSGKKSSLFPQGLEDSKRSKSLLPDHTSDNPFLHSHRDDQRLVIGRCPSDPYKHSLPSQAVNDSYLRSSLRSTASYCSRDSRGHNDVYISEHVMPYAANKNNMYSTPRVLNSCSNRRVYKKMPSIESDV
# Procedure: (§1) Assays were conducted as described by Moskal et al., “GLYX-13: a monoclonal antibody-derived peptide that acts as an N-methyl-D-aspartate receptor modulator,” Neuropharmacology, 49, 1077-87, 2005. These studies were designed to determine if the test compounds act to facilitate NMDAR activation in NMDAR2A, NMDAR2B, NMDAR2C or NMDAR2D expressing HEK cell membranes as measured by increases in [^3H]MK-801 binding.
# (§2) In the assay, 300 μg of NMDAR expressing HEK cell membrane extract protein was preincubated for 15 minutes at 25° C. in the presence of saturating concentrations of glutamate (50 μM) and varying concentrations of test compound (1×10^−15M−1×10^−7M), or 1 mM glycine. Following the addition of 0.3 μCi of [^3H]MK-801 (22.5 Ci/mmol), reactions were again incubated for 15 minutes at 25° C. (nonequilibrium conditions). Bound and free [^3H]MK-801 were separated via rapid filtration using a Brandel apparatus.
# (§3) In analyzing the data, the DPM (disintegrations per minute) of [^3H]MK-801 remaining on the filter were measured for each concentration of test compound or for 1 mM glycine. The DPM values for each concentration of a ligand (N=2) were averaged. The baseline value was determined from the best fit curve of the DPM values modeled using the GraphPad program and the log(agonist) vs. response (three parameters) algorithm was then subtracted from all points in the dataset. The % maximal [^3H]MK-801 binding was then calculated relative to that of 1 mM glycine: all baseline subtracted DPM values were divided by the average value for 1 mM glycine. The EC50 and % maximal activity were then obtained from the best fit curve of the % maximal [^3H]MK-801 binding data modelled using the GraphPad program and the log(agonist) vs. response (three parameters) algorithm.
# (§4) The tables below summarize the results for the wild type […] NMDAR2A, NMDAR2B, NMDAR2C, and NMDAR2D, and whether the compound is not an agonist (−), is an agonist (+), or is a strong agonist (++), where column A is based on the % maximal [^3H]MK-801 binding relative to 1 mM glycine (−=0; <100%=+; and >100%=++); and column B is based on log EC50 values (0=−; ≥1×10^−9 M (e.g., −8)=+; and <1×10^−9 M (e.g., −10)=++).
# NMDAR2B = target: T2, NMDAR2B (Homo sapiens, UniProt Q13224); test: [3H]MK-801 binding in NMDAR2B expressing HEK cell membranes; format: biochemical; design: key to B: log EC50: 0=−; ≥1×10^−9 M (e.g., −8)=+; <1×10^−9 M (e.g., −10)=++; conditions: 50 μM glutamate; for Emax: read-out: A: % maximal [3H]MK-801 binding relative to 1 mM glycine; for EC50: read-out: B: log EC50 (converted)
# T2 construct: expressed in transfected cells; host or cells: HEK cells (membrane extract)
# T2 sequence (Q13224 27-1484, species assumed, other chains not shown): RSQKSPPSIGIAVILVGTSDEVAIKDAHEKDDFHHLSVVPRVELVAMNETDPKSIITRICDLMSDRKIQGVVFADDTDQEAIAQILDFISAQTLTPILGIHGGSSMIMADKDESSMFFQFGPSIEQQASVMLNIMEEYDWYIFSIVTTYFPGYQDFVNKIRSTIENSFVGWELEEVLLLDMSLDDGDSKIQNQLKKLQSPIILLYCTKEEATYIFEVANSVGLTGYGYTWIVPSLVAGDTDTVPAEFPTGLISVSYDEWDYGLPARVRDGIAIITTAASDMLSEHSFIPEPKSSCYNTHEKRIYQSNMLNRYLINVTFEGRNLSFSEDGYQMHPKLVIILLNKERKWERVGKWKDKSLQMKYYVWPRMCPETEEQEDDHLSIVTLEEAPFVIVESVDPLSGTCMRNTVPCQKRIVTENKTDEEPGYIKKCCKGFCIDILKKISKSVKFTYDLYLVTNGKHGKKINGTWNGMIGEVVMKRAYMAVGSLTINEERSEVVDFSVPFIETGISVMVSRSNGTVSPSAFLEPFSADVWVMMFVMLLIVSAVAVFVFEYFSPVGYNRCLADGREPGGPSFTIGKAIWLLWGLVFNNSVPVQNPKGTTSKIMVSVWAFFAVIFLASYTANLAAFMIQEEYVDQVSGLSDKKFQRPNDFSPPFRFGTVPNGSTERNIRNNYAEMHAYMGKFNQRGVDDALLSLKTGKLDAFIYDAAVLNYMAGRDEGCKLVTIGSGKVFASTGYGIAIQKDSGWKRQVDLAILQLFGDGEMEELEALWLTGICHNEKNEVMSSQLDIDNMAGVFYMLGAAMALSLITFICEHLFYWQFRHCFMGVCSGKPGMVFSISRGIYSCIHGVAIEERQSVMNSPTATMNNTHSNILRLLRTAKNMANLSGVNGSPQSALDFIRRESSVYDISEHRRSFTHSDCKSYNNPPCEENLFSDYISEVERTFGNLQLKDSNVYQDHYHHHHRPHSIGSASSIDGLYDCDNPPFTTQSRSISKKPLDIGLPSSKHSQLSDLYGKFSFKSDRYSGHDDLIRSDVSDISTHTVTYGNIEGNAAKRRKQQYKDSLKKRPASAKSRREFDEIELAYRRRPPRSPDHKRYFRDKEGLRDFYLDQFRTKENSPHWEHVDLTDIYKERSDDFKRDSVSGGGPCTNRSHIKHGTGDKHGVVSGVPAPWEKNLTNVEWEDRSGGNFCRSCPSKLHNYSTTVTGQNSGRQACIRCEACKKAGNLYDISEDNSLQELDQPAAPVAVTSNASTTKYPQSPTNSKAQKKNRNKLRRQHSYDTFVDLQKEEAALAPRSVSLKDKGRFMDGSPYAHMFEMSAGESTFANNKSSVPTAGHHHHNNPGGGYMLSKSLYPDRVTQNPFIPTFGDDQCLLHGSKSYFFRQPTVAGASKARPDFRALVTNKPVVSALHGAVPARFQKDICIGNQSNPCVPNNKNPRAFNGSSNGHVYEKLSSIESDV
# Procedure: as §1, §2, §3, §4
# [1] = oral pharmacokinetics (plasma, brain, CSF); format: in vivo; conditions: Sprague Dawley rats, per os 10 mg/kg; for Tmax: normal saline (first four compounds: 5% NMP, 5% Solutol HS, 90% normal saline)
# Procedure: Plasma, brain, and CSF samples were analyzed at various time points over a 24 hour period.
# NMDAR2D [2] = target: T3, NMDAR2D (Homo sapiens, UniProt O15399); test: [3H]MK-801 binding in NMDAR2D expressing HEK cell membranes; format: biochemical; design: key to B: log EC50: 0=−; ≥1×10^−9 M (e.g., −8)=+; <1×10^−9 M (e.g., −10)=++; conditions: for B: log EC50: second part of table, c4, taken as NMDAR2D
# T3 construct: expressed in transfected cells; host or cells: HEK cells (membrane extract)
# T3 sequence (O15399 28-1336, species assumed, other chains not shown): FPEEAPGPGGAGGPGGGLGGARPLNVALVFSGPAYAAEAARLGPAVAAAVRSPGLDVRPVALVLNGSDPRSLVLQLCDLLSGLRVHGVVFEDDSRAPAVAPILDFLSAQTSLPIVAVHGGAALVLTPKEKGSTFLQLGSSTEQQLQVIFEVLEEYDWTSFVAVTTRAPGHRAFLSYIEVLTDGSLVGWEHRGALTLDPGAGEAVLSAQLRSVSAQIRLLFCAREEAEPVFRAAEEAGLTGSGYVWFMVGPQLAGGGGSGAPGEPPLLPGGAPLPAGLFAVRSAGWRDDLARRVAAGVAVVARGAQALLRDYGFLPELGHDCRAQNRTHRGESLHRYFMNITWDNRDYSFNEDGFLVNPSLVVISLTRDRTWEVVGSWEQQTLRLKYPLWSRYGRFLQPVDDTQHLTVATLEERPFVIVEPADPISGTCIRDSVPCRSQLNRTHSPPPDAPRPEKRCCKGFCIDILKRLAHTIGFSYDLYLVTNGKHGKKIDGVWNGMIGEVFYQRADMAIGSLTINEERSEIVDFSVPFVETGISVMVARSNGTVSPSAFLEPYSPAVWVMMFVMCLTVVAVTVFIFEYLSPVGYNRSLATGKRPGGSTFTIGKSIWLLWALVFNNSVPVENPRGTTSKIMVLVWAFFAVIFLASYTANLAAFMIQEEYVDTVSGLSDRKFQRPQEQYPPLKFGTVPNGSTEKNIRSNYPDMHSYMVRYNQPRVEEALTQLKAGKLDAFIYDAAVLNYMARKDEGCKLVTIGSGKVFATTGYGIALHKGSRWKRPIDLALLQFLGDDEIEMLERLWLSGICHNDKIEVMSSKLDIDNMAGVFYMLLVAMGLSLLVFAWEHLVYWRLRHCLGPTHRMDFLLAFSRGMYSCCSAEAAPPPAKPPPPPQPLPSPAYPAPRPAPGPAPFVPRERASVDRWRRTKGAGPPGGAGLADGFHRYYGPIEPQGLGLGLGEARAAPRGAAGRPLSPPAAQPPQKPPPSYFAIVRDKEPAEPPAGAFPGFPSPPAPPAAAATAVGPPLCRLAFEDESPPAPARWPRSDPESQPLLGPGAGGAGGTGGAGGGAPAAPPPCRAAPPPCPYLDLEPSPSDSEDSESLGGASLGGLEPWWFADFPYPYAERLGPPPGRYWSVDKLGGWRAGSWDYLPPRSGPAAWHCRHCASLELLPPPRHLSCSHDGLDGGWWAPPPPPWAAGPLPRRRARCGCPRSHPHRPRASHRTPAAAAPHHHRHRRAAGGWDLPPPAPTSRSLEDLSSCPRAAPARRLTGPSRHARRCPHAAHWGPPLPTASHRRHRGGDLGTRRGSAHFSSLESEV
# Procedure: as §1, §2, §3, §4
# IV pharmacokinetics = format: in vivo; conditions: Sprague Dawley rats; for C0: normal saline (first four compounds: 5% NMP, 5% Solutol HS, 90% normal saline); for Vd: read-out: Vss
# Procedure: Sprague Dawley rats were dosed intravenously using a normal saline formulation containing 2 mg/kg of the compounds identified in the below table (except for the first four compounds that were delivered in 5% NMP, 5% Solutol® HS and 90% normal saline formulation). The table below summarizes the results of the IV pharmacokinetics.
# NMDAR2D [3] = target: T4, NMDAR2D (Homo sapiens, UniProt O15399+Q05586); test: [3H]MK-801 binding in NMDAR2D expressing HEK cell membranes; format: biochemical; design: key to B: log EC50: 0=−; ≥1×10^−9 M (e.g., −8)=+; <1×10^−9 M (e.g., −10)=++; conditions: second part of table; c3, taken as NMDAR2D; read-out: A: % maximal [3H]MK-801 binding relative to 1 mM glycine
# T4 construct: expressed in transfected cells; host or cells: HEK cells (membrane extract)
# T4 sequence (O15399 28-1336, species assumed, other chains not shown): as above
# Procedure: as §1, §2, §3, §4
# Sprague Dawley rats = test: Porsolt forced swim test; format: in vivo; conditions: 0.1 mg/kg; for % reduction in float time: relative to vehicle group
# Procedure: A non-clinical in vivo pharmacology study (Porsolt assay) was performed to measure antidepressant-like effects. A negative control (0.5% sodium carboxymethyl cellulose in 0.9% sterile saline vehicle) and a positive control (fluoxetine) are shown for comparison against test compound. The study allowed for the evaluation of the effects of each compound on the Porsolt forced swim test as assessed by the rats' response (reduced floating time) during a 5-minute swimming test.
# Male 2-3 month old Sprague Dawley rats were used (Harlan, Indianapolis, Ind.). Rats were housed in Lucite cages with aspen wood chip bedding, maintained on a 12:12 light:dark cycle (lights on at 5 AM), and given ad libitum access to Purina lab chow (USA) and tap water throughout the study.
# The Porsolt forced swim test adapted for use in rats was performed as described by Burgdorf et al., (The long-lasting antidepressant effects of rapastinel (GLYX-13) are associated with a metaplasticity process in the medial prefrontal cortex and hippocampus. Neuroscience 308:202-211, 2015). Animals were placed in a 46 cm tall×20 cm in diameter clear glass tube filled to 30 cm with tap water (23±1° C.) for 15 min on the first day (habituation) and 5 min on the subsequent test day. Positive control fluoxetine was dosed 3 times (24 h, 5 h and 1 h) prior to testing. Animals were tested 1 h or 24 h post-dosing with the test compounds or vehicle. Animals received a 15 min habituation session 1 day before the 5 min test. A subset of compounds tested at 1 h post-dosing were retested at 1 wk post-dosing in the same sets of animals. Water was changed after every other animal. Animals were videotaped, and floating time as defined as the minimal amount of effort required to keep the animals head above water was scored offline by a blinded experimenter with high inter-rater reliability (Pearson's r>0.9).
# Each compound tested at dose level shown. Significance vs. vehicle group for each experiment is marked. […] A compound marked “No” was not statistically significant from vehicle. Data was averaged for test compound and vehicle groups (N approximately 8 per group) and the percent reduction in floating for group treated with test compound relative to group treated with vehicle is shown.
# [4] = Sprague Dawley, rat, plasma, po, 10 mg/kg, read-out: Tmax
# [5] = Sprague Dawley, rat, plasma, po, 10 mg/kg, plasma, read-out: Cmax
# [6] = Sprague Dawley, rat, in vivo, iv, 2 mg/kg
# [7] = Sprague Dawley, rat, in vivo, iv, 2 mg/kg, read-out: C0
# [8] = Sprague Dawley, rat, plasma, po, 10 mg/kg
SMILES,Max Effect (mean number of 50 kHz USVs per 15 seconds) (rats; dose 0.1 mg/kg),Emax (NMDAR2A),EC50 (NMDAR2A),Emax (NMDAR2B),EC50 (NMDAR2B),CSF Cmax [1],"Tmax [1, 4]","Cmax [1, 5]",Max Effect (mean number of 50 kHz USVs per 15 seconds) (rats; dose .001-1 mg/kg),B: log EC50 (NMDAR2B),T1/2 (IV pharmacokinetics; intravenous 2 mg/kg),AUC(0-t) (IV pharmacokinetics; [6]),clearance (IV pharmacokinetics; [6]),C0 (IV pharmacokinetics; [7]),Vd (IV pharmacokinetics; [6]),Brain Cmax [1],"AUC(0-t) [1, 8]","bioavailability [1, 8]",A: % maximal [3H]MK-801 binding relative to 1 mM glycine (NMDAR2A),A: % maximal [3H]MK-801 binding relative to 1 mM glycine (NMDAR2B),other results
"CC(C)(C)OC(=O)N1CCCC12CCNC2=O (single isomer, unassigned) [RT-1, tert-butyl 6-oxo-1,7-diazaspiro[4.4]nonane-1-carboxylate]",** (**: 7.7-10),< 100%,< 1 nM,< 100%,< 1 nM,,,,,,,,,,,,,,,,
"O=C1NCCC12CCCN2 (single isomer, unassigned) [RW-1, 1,7-diazaspiro[4.4]nonan-6-one]",** (**: 7.7-10),< 100%,≥ 1 nM,< 100%,< 1 nM,853 ng/mL,1 h,4070 ng/mL,,,,,,,,,,,,,
"O=C1NCCC12CCCNC2 (stereo not drawn) [RB-1, 2,7-diazaspiro[4.5]decan-1-one]",,< 100%,< 1 nM,> 100%,,27.4 ng/mL,1.17 h,825 ng/mL,*** (***:10.1-20),−,3.35 h,1260 ng·h/mL,25.8 mL/min/kg,2070 ng/mL,2.79 L/kg,40.2 ng/mL,3290 ng·h/mL,52%,,,"A: % maximal [3H]MK-801 binding relative to 1 mM glycine (NMDAR2D [2]; second part of table (r25-r35), c3, taken as NMDAR2D): + (<100%=+)"
"O=C1NCCC12CCCNC2 (stereo not drawn) [RC-1, 2,7-diazaspiro[4.5]decan-1-one]",,,< 1 nM,,< 1 nM,20.8 ng/mL,,,*** (***:10.1-20),,1.36 h,,,,,27.6 ng/mL,,,+ (<100%=+),++ (>100%=++),B: log EC50 (NMDAR2D [2]): −; AUClast (IV pharmacokinetics; intravenous 2 mg/kg): 1511.4 ng·h/mL; Cl (IV pharmacokinetics; intravenous 2 mg/kg): 21.81 mL/min/kg; Vss (IV pharmacokinetics; intravenous 2 mg/kg): 1.84 L/kg; C0 (IV pharmacokinetics; intravenous 2 mg/kg): 2013.4 ng/mL; % F [1]: 49%; AUClast [1]: 3668.7 ng·h/mL; Tmax [1]: 1.67 h; Cmax ([1]; plasma): 990.2 ng/mL
O=C1NCCC12CCCCN2 (stereo not drawn) [RG-601],,< 100%,< 1 nM,< 100%,< 1 nM,1151 ng/mL,0.83 h,3990 ng/mL,,,,2280 ng·h/mL,13.5 mL/min/kg,2850 ng/mL,1.14 L/kg,1447 ng/mL,9510 ng·h/mL,83%,,,"Emax (NMDAR2D [3]): > 100%; half-life (IV pharmacokinetics; [6]): 1.16 h; Significance vs. vehicle (Sprague Dawley rats; 1 wk post-dose): Yes (statistically significant (p<=0.05) from vehicle at dose level shown); % reduction in float time (Sprague Dawley rats; 1 wk post-dose): 34.4%; Significance vs. vehicle (Sprague Dawley rats; 1 h post-dose, floating time in 5 min test): Yes (statistically significant (p<=0.05) from vehicle at dose level shown); % reduction in float time (Sprague Dawley rats; 1 h post-dose): 82.7%"
CC(C)(C)OC(=O)N1CCCCC12CCNC2=O (stereo not drawn) [RG-605],,,< 1 nM,,,1211 ng/mL,,,,−,,1580 ng·h/mL,21 mL/min/kg,3360 ng/mL,0.53 L/kg,733 ng/mL,,,+ (<100%=+),− (−=0),"B: log EC50 (NMDAR2D [2]): −; Emax (NMDAR2D [3]): 0%; half-life (IV pharmacokinetics; [6]): 0.3 h; % F [1]: 81%; AUClast [1]: 6370 ng·h/mL; Cmax ([1]; plasma): 6478 ng/mL; Tmax ([1]; rat, plasma, po, read-out: Tmax): 0.25 h"
